Source: ChEMBL document CHEMBL1201862, “PubChem BioAssay data set” (2004)
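Growth conditions: 96-well plates. Treatment: test compound, 48 hours, 5 concentrations. Analysis: linear interpolation between bracketing concentrations; unreached endpoints set to highest concentration. Here, GI50 denotes the concentration required for 50% inhibition of growth.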 Activity calls are given as the source filed them. No stated cut-off is given here; in the data, active = GI50 up to about 1.1 µM and inactive = higher.

What was measured:
Assay in all cases: NCI anticancer screen, dose series, 48 h
786-0 = tested on: 786-0
A498 = tested on: A498
A549 = tested on: A549
ACHN = tested on: ACHN
BT-549 = tested on: BT-549
CAKI-1 = tested on: CAKI-1
CCRF-CEM = tested on: CCRF-CEM
COLO 205 = tested on: COLO 205
DU-145 = tested on: DU-145
EKVX = tested on: EKVX
HCC 2998 = tested on: HCC 2998
HCT-116 = tested on: HCT-116
HCT-15 = tested on: HCT-15
HL-60 = tested on: HL-60
HOP-62 = tested on: HOP-62
HOP-92 = tested on: HOP-92
HT-29 = tested on: HT-29
Hs-578T = tested on: Hs-578T
IGROV-1 = tested on: IGROV-1
KM12 = tested on: KM12
LOX IMVI = tested on: LOX IMVI
M14 = tested on: M14
MCF7 = tested on: MCF7
MDA-MB-231 = tested on: MDA-MB-231
MDA-MB-435 = tested on: MDA-MB-435
MDA-N = tested on: MDA-N
MOLT-4 = tested on: MOLT-4
Malme-3M = tested on: Malme-3M
NCI-H226 = tested on: NCI-H226
NCI-H23 = tested on: NCI-H23
NCI-H460 = tested on: NCI-H460
NCI-H522 = tested on: NCI-H522
NCI/ADR-RES = tested on: NCI/ADR-RES
OVCAR-4 = tested on: OVCAR-4
OVCAR-5 = tested on: OVCAR-5
OVCAR-8 = tested on: OVCAR-8
PC-3 = tested on: PC-3
RXF 393 = tested on: RXF 393
SF-268 = tested on: SF-268
SF-295 = tested on: SF-295
SF-539 = tested on: SF-539
SK-MEL-28 = tested on: SK-MEL-28
SK-MEL-2 = tested on: SK-MEL-2
SK-MEL-5 = tested on: SK-MEL-5
SN12C = tested on: SN12C
SNB-19 = tested on: SNB-19
SNB-75 = tested on: SNB-75
SR = tested on: SR
SW-620 = tested on: SW-620
T47D = tested on: T47D
TK-10 = tested on: TK-10
U-251 = tested on: U-251
UACC-257 = tested on: UACC-257
UO-31 = tested on: UO-31
K562 = tested on: K562
OVCAR-3 = tested on: OVCAR-3
RPMI-8226 = tested on: RPMI-8226
SK-OV-3 = tested on: SK-OV-3
UACC-62 = tested on: UACC-62

O=c1c(-c2ccc(Cl)cc2)nnc2n(Cc3ccccc3)c3ccccc3n12
GI50 (786-0): 14.9 µM (inactive)
GI50 (A498): 23 µM (inactive)
GI50 (A549): 25.5 µM (inactive)
GI50 (ACHN): 21.7 µM (inactive)
GI50 (BT-549): 22 µM (inactive)
GI50 (CAKI-1): 16.4 µM (inactive)
GI50 (CCRF-CEM): > 100 µM (inactive)
GI50 (COLO 205): > 100 µM (inactive)
GI50 (DU-145): > 100 µM (inactive)
GI50 (EKVX): 38.4 µM (inactive)
GI50 (HCC 2998): > 100 µM (inactive)
GI50 (HCT-116): 50.5 µM (inactive)
GI50 (HCT-15): > 100 µM
GI50 (HL-60): 50 µM (inactive)
GI50 (HOP-62): 23.6 µM (inactive)
GI50 (HOP-92): 14.7 µM (inactive)
GI50 (HT-29): 52.6 µM (inactive)
GI50 (Hs-578T): 24 µM (inactive)
GI50 (IGROV-1): 18.7 µM (inactive)
GI50 (KM12): 28.9 µM (inactive)
GI50 (LOX IMVI): 82.6 µM (inactive)
GI50 (M14): 43.4 µM (inactive)
GI50 (MCF7): 60.7 µM (inactive)
GI50 (MDA-MB-231): 20 µM (inactive)
GI50 (MDA-MB-435): 4.28 µM (inactive)
GI50 (MDA-N): > 100 µM (inactive)
GI50 (MOLT-4): 66.7 µM (inactive)
GI50 (Malme-3M): 39.8 µM (inactive)
GI50 (NCI-H226): 23.7 µM (inactive)
GI50 (NCI-H23): 37 µM (inactive)
GI50 (NCI-H460): 33.3 µM (inactive)
GI50 (NCI-H522): 16.8 µM (inactive)
GI50 (NCI/ADR-RES): 52.7 µM (inactive)
GI50 (OVCAR-4): 5.94 µM (inactive)
GI50 (OVCAR-5): 48.9 µM (inactive)
GI50 (OVCAR-8): 45.3 µM (inactive)
GI50 (PC-3): 30.1 µM (inactive)
GI50 (RXF 393): 13.2 µM (inactive)
GI50 (SF-268): 23.3 µM (inactive)
GI50 (SF-295): 19.1 µM (inactive)
GI50 (SF-539): 13.6 µM (inactive)
GI50 (SK-MEL-28): 51.6 µM (inactive)
GI50 (SK-MEL-2): 44.2 µM (inactive)
GI50 (SK-MEL-5): 41.1 µM (inactive)
GI50 (SN12C): 82.2 µM (inactive)
GI50 (SNB-19): 17.7 µM (inactive)
GI50 (SNB-75): 13 µM (inactive)
GI50 (SR): > 100 µM (inactive)
GI50 (SW-620): > 100 µM (inactive)
GI50 (T47D): 67.9 µM (inactive)
GI50 (TK-10): 20.6 µM (inactive)
GI50 (U-251): 23.7 µM (inactive)
GI50 (UACC-257): 51.3 µM (inactive)
GI50 (UO-31): 44.4 µM (inactive)

CCCCCC(C)SC1(C(=O)OC)CC(OC(C)=O)C(NC(C)=O)C([C@H](OC(C)=O)[C@@H](COC(C)=O)OC(C)=O)O1 (some centres undefined)
GI50 (786-0): 47 µM (inactive)
GI50 (A498): 67.1 µM (inactive)
GI50 (A549): 21.2 µM (inactive)
GI50 (ACHN): > 100 µM (inactive)
GI50 (BT-549): 55.6 µM (inactive)
GI50 (CAKI-1): 93.3 µM (inactive)
GI50 (DU-145): > 100 µM (inactive)
GI50 (HCC 2998): 30.2 µM (inactive)
GI50 (HCT-116): 43.9 µM (inactive)
GI50 (HCT-15): 34.5 µM
GI50 (HL-60): 42.5 µM (inactive)
GI50 (HOP-62): > 100 µM (inactive)
GI50 (HOP-92): 44.4 µM (inactive)
GI50 (HT-29): 22.5 µM (inactive)
GI50 (Hs-578T): 29.4 µM (inactive)
GI50 (IGROV-1): > 100 µM (inactive)
GI50 (K562): 92.9 µM (inactive)
GI50 (KM12): 66.7 µM (inactive)
GI50 (M14): 71 µM (inactive)
GI50 (MCF7): 43.7 µM (inactive)
GI50 (MDA-MB-231): 41.9 µM (inactive)
GI50 (MDA-MB-435): 70.1 µM (inactive)
GI50 (MDA-N): 90.6 µM (inactive)
GI50 (MOLT-4): 27.3 µM (inactive)
GI50 (Malme-3M): 44.1 µM (inactive)
GI50 (NCI-H226): 40.6 µM (inactive)
GI50 (NCI-H23): > 100 µM (inactive)
GI50 (NCI-H460): 78.7 µM (inactive)
GI50 (NCI-H522): 51.2 µM (inactive)
GI50 (NCI/ADR-RES): > 100 µM (inactive)
GI50 (OVCAR-3): 90.4 µM (inactive)
GI50 (OVCAR-5): > 100 µM (inactive)
GI50 (OVCAR-8): 83.2 µM (inactive)
GI50 (PC-3): 67.3 µM (inactive)
GI50 (RPMI-8226): 33.7 µM (inactive)
GI50 (RXF 393): 88.1 µM (inactive)
GI50 (SF-268): > 100 µM (inactive)
GI50 (SF-295): > 100 µM (inactive)
GI50 (SF-539): 22.3 µM (inactive)
GI50 (SK-MEL-28): > 100 µM (inactive)
GI50 (SK-MEL-2): 0.245 µM (active)
GI50 (SK-MEL-5): 91.2 µM (inactive)
GI50 (SN12C): > 100 µM (inactive)
GI50 (SNB-19): > 100 µM (inactive)
GI50 (SNB-75): > 100 µM (inactive)
GI50 (SR): 64 µM (inactive)
GI50 (SW-620): > 100 µM (inactive)
GI50 (T47D): 45.6 µM (inactive)
GI50 (TK-10): > 100 µM (inactive)
GI50 (U-251): > 100 µM (inactive)
GI50 (UACC-257): 33 µM (inactive)
GI50 (UO-31): 38.5 µM (inactive)

COc1ccc(/C=C/C(=O)NCC(NC(=O)/C=C/c2ccc(OC)c(OC)c2)C(=O)O)cc1OC (centres undefined)
GI50 (786-0): > 100 µM (inactive)
GI50 (A498): > 100 µM (inactive)
GI50 (A549): > 100 µM (inactive)
GI50 (ACHN): > 100 µM (inactive)
GI50 (BT-549): > 100 µM (inactive)
GI50 (CAKI-1): > 100 µM (inactive)
GI50 (CCRF-CEM): > 100 µM (inactive)
GI50 (COLO 205): > 100 µM (inactive)
GI50 (DU-145): > 100 µM (inactive)
GI50 (EKVX): > 100 µM (inactive)
GI50 (HCC 2998): > 100 µM (inactive)
GI50 (HCT-116): > 100 µM (inactive)
GI50 (HCT-15): < 0.01 µM
GI50 (HOP-62): > 100 µM (inactive)
GI50 (HOP-92): 0.0163 µM (active)
GI50 (HT-29): > 100 µM (inactive)
GI50 (Hs-578T): > 100 µM (inactive)
GI50 (IGROV-1): < 0.01 µM (active)
GI50 (K562): > 100 µM (inactive)
GI50 (KM12): > 100 µM (inactive)
GI50 (LOX IMVI): > 100 µM (inactive)
GI50 (M14): > 100 µM (inactive)
GI50 (MCF7): > 100 µM (inactive)
GI50 (MDA-MB-231): > 100 µM (inactive)
GI50 (MDA-MB-435): > 100 µM (inactive)
GI50 (MDA-N): > 100 µM (inactive)
GI50 (MOLT-4): > 100 µM (inactive)
GI50 (Malme-3M): > 100 µM (inactive)
GI50 (NCI-H226): > 100 µM (inactive)
GI50 (NCI-H23): > 100 µM (inactive)
GI50 (NCI-H460): > 100 µM (inactive)
GI50 (NCI-H522): > 100 µM (inactive)
GI50 (NCI/ADR-RES): 0.0169 µM (active)
GI50 (OVCAR-3): > 100 µM (inactive)
GI50 (OVCAR-4): > 100 µM (inactive)
GI50 (OVCAR-5): > 100 µM (inactive)
GI50 (OVCAR-8): > 100 µM (inactive)
GI50 (PC-3): > 100 µM (inactive)
GI50 (RPMI-8226): > 100 µM (inactive)
GI50 (RXF 393): > 100 µM (inactive)
GI50 (SF-268): > 100 µM (inactive)
GI50 (SF-295): > 100 µM (inactive)
GI50 (SF-539): > 100 µM (inactive)
GI50 (SK-MEL-28): > 100 µM (inactive)
GI50 (SK-MEL-2): > 100 µM (inactive)
GI50 (SK-MEL-5): > 100 µM (inactive)
GI50 (SK-OV-3): > 100 µM (inactive)
GI50 (SN12C): > 100 µM (inactive)
GI50 (SNB-19): > 100 µM (inactive)
GI50 (SNB-75): > 100 µM (inactive)
GI50 (SR): > 100 µM (inactive)
GI50 (SW-620): > 100 µM (inactive)
GI50 (T47D): > 100 µM (inactive)
GI50 (TK-10): > 100 µM (inactive)
GI50 (U-251): > 100 µM (inactive)
GI50 (UACC-257): > 100 µM (inactive)
GI50 (UACC-62): > 100 µM (inactive)
GI50 (UO-31): > 100 µM (inactive)
